A short description of data set [1]: Caco-2 permeability study. In kind it is in vitro ADME. Particulars: human, Caco-2, 10 μM, N = 3. The protocol: (§1) Compound 7g permeation ability (i.e. permeability) was assessed through Caco-2 cell monolayer. Permeability study was planned in both directions from apical to basolateral (A to B) and basolateral to apical (B to A) side. A to B is for checking drug permeation characteristics from the intestine (site of absorption) to systemic circulation and B to A is for checking drug efflux back to the intestine.
A general note: Passage across Caco-2 layers is used to estimate intestinal permeability.

Another data set has as its system Caco-2 cell monolayer. Nature of the data set: Caco-2 permeability study. In kind it is in vitro ADME. Particulars: 10 μM, A to B and B to A; samples below the lower limit of quantitation. The protocol:
as §1

In data set [2] the test system is CT-DNA. Nature of the data set: UV-visible absorption titration with CT-DNA. In kind it is binding. The method, then:
DNA is one of the key target for cancer therapy. The drug molecules bind with the DNA by three major modes (i) electrostatic interactions with the DNA double helix (ii) binding to grooves of DNA (iii) intercalation between the base pairs of DNA.[25] The titration in UV was performed by increasing concentration of DNA from 10–60 μM into a fixed drug concentration (20 μM). The intra-ligand absorption bands around 290–350 nm (π–π* transition) were used in observation of the interaction of DNA and compound 7e (Fig. S3a ^†). […] Ethidium bromide, a nonspecific intercalator, gives a strong fluorescence while intercalating DNA base pairs. This enhanced fluorescence can be quenched by another chemical moiety which can competitively replace EtBr and binds to the same site.[27] […] The original fluorescence intensity of EtBr–DNA complex is rapidly quenched by increasing the concentration of compound 7e (Fig. S3c ^†). […]
Then the 96 well plate was placed on the shaker for 10 min and subsequently the absorbance was recorded by the ELISA reader at λ = 490 nm. […] The data were expressed as the growth inhibition percentage calculated according to the equation: % growth inhibition = 100 − [(AD × 100)/AB], where AD is the absorbance measured for sample and AB is the absorbance measured for blank wells (cells with a […]
with DNA. The absorbance of the complex was measured after each succeeding addition of […]

Data set [3] relates to CT-DNA. The data set is described as follows: Ethidium bromide displacement assay (fluorescence). In kind it is binding. The method, then: DNA is one of the key target for cancer therapy. The drug molecules bind with the DNA by three major modes (i) electrostatic interactions with the DNA double helix (ii) binding to grooves of DNA (iii) intercalation between the base pairs of DNA.[25] The titration in UV was performed by increasing concentration of DNA from 10–60 μM into a fixed drug concentration (20 μM). The intra-ligand absorption bands around 290–350 nm (π–π* transition) were used in observation of the interaction of DNA and compound 7e (Fig. S3a ^†). There was a hypochromic shift with a slight blue shift in the wavelength of compound 7e was observed which concluded that complex 7e bind to DNA through intercalative binding mode.[26] […] Ethidium bromide, a nonspecific intercalator, gives a strong fluorescence while intercalating DNA base pairs. This enhanced fluorescence can be quenched by another chemical moiety which can competitively replace EtBr and binds to the same site.[27] […] The original fluorescence intensity of EtBr–DNA complex is rapidly quenched by increasing the concentration of compound 7e (Fig. S3c ^†). […]
EtBr displacement is periodically used as a diagnostic approach to determine the capability of compounds to bind with DNA [4]. EtBr emits intense fluorescence when it intercalates with CT-DNA, whereas in its free form in buffer (5 mM Tris-HCl/50mM NaCl buffer, pH 7.4) there is no apparent florescence emission. […] The binding capacity of drug complex with CT-DNA was estimated by quenching of fluorescence intensity. […]
Κapp ×[Complex]50 = ΚEtBr ×[EtBr ](3) where Kapp is the apparent binding constant of the complex, [Complex]50 is the concentration of the complex at 50% fluorescence quenching of DNA-bound ethidium bromide, KEB is the binding constant of the EB (KEtBr = 1.0 x 107 M-1), and [EB] is the concentration of ethidium bromide (8 μM). The Stern-Volmer quenching constant (K SV) has been determined quantitatively by using Stern-Volmer equation. Stern-Volmer plots of I0/I vs. [complex] were made using the corrected fluorescence data taking into account the effect of dilution. […]

Molecules are shown by their SMILES.

Turning to `COc1ccc2nc(COc3ccccc3-c3nc4ccccc4s3)c(COc3ccccc3-c3nc4ccccc4s3)nc2c1` [Compound 7g, 2,2'-((((6-methoxyquinoxaline-2,3-diyl)bis(methylene))bis(oxy))bis(2,1-phenylene))bis(benzo[d]thiazole)], the recovery at 10 μM in data set [1] (A to B) was determined as 101%; in data set [1] (B to A), 96%. Besides, in the data set on Caco-2 cell monolayer, the “permeability across Caco-2 cell monolayer” value was “low permeability”.

In the case of `Clc1cc2nc(COc3ccccc3-c3nc4ccccc4s3)c(COc3ccccc3-c3nc4ccccc4s3)nc2cc1Cl` [Compound 7e], the “K b, intrinsic DNA binding constant” value with CT-DNA [2] (UV-visible absorption titration, 7e 20 μM, DNA 10–60 μM) turned out to be 6900 M⁻¹. Further, the “% Hypochromism” value in the data set with CT-DNA [2] (UV-visible titration with CT-DNA) was found to be 50%. The “K sv, Stern–Volmer quenching constant” value in the data set with CT-DNA [3] (EtBr–DNA fluorescence quenching) is 5500 M⁻¹. Also, in the data set on CT-DNA [3] ([DNA] = 120 μM, [EtBr] = 8 μM, Tris HCl/NaCl buffer pH 7.2), the “[7e]50, concentration at 50% fluorescence quenching of DNA-bound ethidium bromide” value amounted to 140 µM. Besides, the “K app, apparent DNA binding constant” value with CT-DNA [3] (competitive displacement of EtBr, fluorescence) stood at 570000 M⁻¹.

The values are drawn from publication PMC9061853, “Luminescent bis(benzo[d]thiazolyl)quinoxaline: facile synthesis, nucleic acid and protein BSA interaction, live-cell imaging, biopharmaceutical research and cancer theranostic application” (RSC Advances, 2019).
